According to patent US20040023264A1, “Method for determining the peptide hormone activities or the steroid hormone activities of a material or substance mixture” (priority 2000, published 2004):

What was measured:
[1] = target: T1, glucocorticoid receptor (Rattus norvegicus, UniProt P06536); conditions: CC1 cells
T1 sequence (P06536 1-795): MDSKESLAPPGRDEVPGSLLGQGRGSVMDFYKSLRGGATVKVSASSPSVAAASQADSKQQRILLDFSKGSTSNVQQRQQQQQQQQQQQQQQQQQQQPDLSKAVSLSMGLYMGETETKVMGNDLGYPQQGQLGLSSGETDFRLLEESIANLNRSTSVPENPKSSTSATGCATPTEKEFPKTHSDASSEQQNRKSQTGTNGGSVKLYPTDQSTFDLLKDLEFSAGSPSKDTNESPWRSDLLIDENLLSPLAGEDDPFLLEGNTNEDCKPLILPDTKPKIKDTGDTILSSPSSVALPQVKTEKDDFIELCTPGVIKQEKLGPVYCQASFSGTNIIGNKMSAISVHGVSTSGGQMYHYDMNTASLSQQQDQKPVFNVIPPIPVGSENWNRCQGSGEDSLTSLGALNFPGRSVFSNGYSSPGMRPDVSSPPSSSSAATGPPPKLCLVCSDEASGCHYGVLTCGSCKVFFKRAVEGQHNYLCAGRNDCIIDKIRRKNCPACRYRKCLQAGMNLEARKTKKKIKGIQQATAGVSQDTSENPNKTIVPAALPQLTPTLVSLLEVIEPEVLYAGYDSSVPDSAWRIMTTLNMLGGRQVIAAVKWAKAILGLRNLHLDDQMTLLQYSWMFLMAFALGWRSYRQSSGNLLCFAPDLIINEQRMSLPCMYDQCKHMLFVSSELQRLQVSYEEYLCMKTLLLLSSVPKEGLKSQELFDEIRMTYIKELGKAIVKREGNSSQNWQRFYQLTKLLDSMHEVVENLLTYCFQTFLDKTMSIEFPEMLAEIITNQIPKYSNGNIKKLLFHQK

[2] = target: T1, glucocorticoid receptor
Description: These cell lines contain endogenous glucocorticoid receptors. Here, steroid concentration—in this case corticosterone concentration—determines the extent of glucocorticoid activity. […]
(§1) Thus, the following examples always concern transit ntly cotransfected CC1or MH 3924 cell.
Determination was carried out as in example 7, however, with MH 3924 cells.

[3] = target: T1, glucocorticoid receptor; assay: Glucocorticoid activity bioassay, CC1 cells cotransfected with GRE2-TATA-Luc and glucocorticoid receptor expression plasmid; assay type: cell-based; parameters: expressed in transfected cells; host or cells: CC1 cells (permanent rat liver cell line), transiently cotransfected with pSTC-rGR and GRE2-TATA-Luc; conditions: for corticosteroid (glucocorticoid) activity of corticosterone:BSA derivatives / glucocorticoid activity (luciferase induction): CC1 cells; for corticosteroid (glucocorticoid) activity of corticosterone:BSA derivatives: each 200 nM, various induction times; for glucocorticoid activity (luciferase induction): different concentrations, induction time 24 h
Description: These cell lines contain endogenous glucocorticoid receptors. Here, steroid concentration—in this case corticosterone concentration—determines the extent of glucocorticoid activity. […] Induction time: 24 h (see also example 12).
as §1

[4] = target: androgen receptor (Homo sapiens, UniProt P10275); conditions: HeLa cells, induction time 24 h
Sequence of androgen receptor (P10275 whole entry): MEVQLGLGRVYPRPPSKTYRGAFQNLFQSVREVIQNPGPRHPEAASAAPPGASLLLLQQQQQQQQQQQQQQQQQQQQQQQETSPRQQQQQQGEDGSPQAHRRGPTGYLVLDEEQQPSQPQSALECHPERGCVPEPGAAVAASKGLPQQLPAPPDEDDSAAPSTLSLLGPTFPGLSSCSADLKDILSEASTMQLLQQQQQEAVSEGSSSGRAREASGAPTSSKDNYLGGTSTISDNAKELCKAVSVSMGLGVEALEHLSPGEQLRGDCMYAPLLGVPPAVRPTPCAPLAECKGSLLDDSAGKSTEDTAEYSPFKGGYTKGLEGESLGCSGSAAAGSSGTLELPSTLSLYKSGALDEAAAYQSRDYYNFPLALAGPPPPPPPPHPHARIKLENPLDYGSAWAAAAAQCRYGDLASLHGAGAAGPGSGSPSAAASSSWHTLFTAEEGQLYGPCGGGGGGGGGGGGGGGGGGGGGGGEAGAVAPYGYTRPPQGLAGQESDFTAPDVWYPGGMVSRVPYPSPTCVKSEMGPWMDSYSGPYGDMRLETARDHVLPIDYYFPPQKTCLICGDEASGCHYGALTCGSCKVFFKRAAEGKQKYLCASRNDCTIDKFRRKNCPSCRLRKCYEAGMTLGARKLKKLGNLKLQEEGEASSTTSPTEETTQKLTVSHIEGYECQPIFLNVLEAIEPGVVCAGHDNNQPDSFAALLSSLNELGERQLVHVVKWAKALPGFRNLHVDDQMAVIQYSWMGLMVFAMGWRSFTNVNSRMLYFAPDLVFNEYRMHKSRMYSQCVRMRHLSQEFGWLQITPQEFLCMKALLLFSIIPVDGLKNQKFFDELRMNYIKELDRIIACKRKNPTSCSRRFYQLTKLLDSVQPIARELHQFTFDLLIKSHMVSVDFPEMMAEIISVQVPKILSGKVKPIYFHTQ
From the text: Transfection method in this experiment was the DOTAP method (Boehringer, Mannheim, Germany).
This androgen receptor free cell line was transiently cotransfected with GRE2-TATA-Luc and a recombinant androgen receptor expression plasmid.

[5] = test system: androgen receptors (AR); assay: Androgen induced luciferase activity in transfected human genital skin fibroblasts (GSF); assay type: cell-based; conditions: mibolerone 2 nM, 24 h incubation; three Luc constructs; strength depends on origin of fibroblasts
From the text: FIG. 1: Androgen induced luciferase activity in human genital skin fibroblasts (GSF) in culture transfected with three different luciferase gen constructs of different androgen sensitivity (“Lu ”): PRE2-Tk-Luc, MMTV-Luc, GRE2-TATA-Luc
The only steroid hormone receptors present in GSF are androgen receptors (AR). Mibolerone, which is used in this experiment, is a synthetic androgen with anabolic effectiveness. […] Obviously, GE2-TATA-Luc is the most sensitive reporter gene construct of the ones used here (for comparison, see also example 10 with a MMTV promotor reporter gene construct as well as FIG. 10).

`CC#C[C@]1(O)CC[C@H]2[C@@H]3CCC4=CC(=O)CCC4=C3[C@@H](c3ccc(N(C)C)cc3)C[C@@]21C` [RU 38486, mifepristone] was tested, and the “blocking of luciferase inducing effect of corticosterone and 21-hemisuccinat-corticosterone:BSA (glucocorticoid antagonism)” value [1] was “extensively blocked”.

In the case of 21-hemisuccinat-corticosterone:BSA, the “concentration at which luciferase induction is easily measurable” value ([2]; MH 3924 cells, short term induction of 10 to 30 min (FIG. 4a)) is reported as no more than 50 nM, the “corticosteroid (glucocorticoid) activity of corticosterone:BSA derivatives” value [3] is reported as “strong” and the “luciferase induction by corticosterone derivative bound to BSA (glucocorticoid activity)” value ([3]; cotransfected CC1 cells) is reported as “luciferase is induced”.

3-CMO-corticosterone:BSA [3:BSA] was tested, and the “corticosteroid (glucocorticoid) activity of corticosterone:BSA derivatives” value [3] was “weak”.

In the case of `C[C@]1(O)CC[C@H]2[C@@H]3CCC4=CC(=O)CCC4=C3C=C[C@@]21C` [R1881, methyltrienolone], the “concentration at which hormone activity (anabolic potency) can already be detected” value [4] is reported as 10 pM.

With `C[C@]12C[C@H](O)[C@H]3[C@@H](CCC4=CC(=O)CC[C@@]43C)[C@@H]1CC[C@@H]2C(=O)CO` [corticosterone] the “response of MH 3924 cells compared with response of CC1 cells” value ([2]; as in example 7 (24 h)) was “distinctly more sensitive” and the “glucocorticoid activity (luciferase induction)” value [3] was “very active”.

`C[C@]12CCC(=O)C=C1CC[C@@H]1[C@@H]2CC[C@@]2(C)[C@H]1CC[C@]2(O)C(=O)CO` [cortexolone, 17α-, 21-dihydroxy-progesterone] was tested, and the “glucocorticoid activity (luciferase induction)” value [3] was “significant glucocorticoid activity”.

`C[C@@H]1CC2=CC(=O)CC[C@@H]2[C@H]2CC[C@@]3(C)[C@@H](CC[C@]3(C)O)[C@@H]21` [Mibolerone] was tested, and the “luciferase activity induced by androgen” value [5] was “luciferase activity of varying strength”.
